Experiments:
[1] = test system: Glo-Response ARE-luc2P HEK293 cell line; assay: ARE luciferase reporter cell-based assay; conditions: Homo sapiens, HEK293, 24 h, average of results obtained;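 also: luciferase signal tracks Nrf2 activation of the ARE once compounds disrupt KEAP1-Nrf2 binding, read with One-Glo reagent, DMSO serving as low control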
[2] = target: Kelch domain of human KEAP1 (321-624 aa) (Homo sapiens (Human), UniProt Q14145); assay: KEAP1 KELCH ThermoFluor binding assay; conditions: KEAP Kelch […], 1,8-ANS, pH 7.0, average of results obtained, read-out: Tf Kd;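 also: Ligand-induced melting temperature shift of E. coli-expressed KEAP1 Kelch protein, Kd estimated from concentration-response curves of ΔTm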
Sequence of Kelch domain of human KEAP1 (321-624 aa) (Q14145 321-624): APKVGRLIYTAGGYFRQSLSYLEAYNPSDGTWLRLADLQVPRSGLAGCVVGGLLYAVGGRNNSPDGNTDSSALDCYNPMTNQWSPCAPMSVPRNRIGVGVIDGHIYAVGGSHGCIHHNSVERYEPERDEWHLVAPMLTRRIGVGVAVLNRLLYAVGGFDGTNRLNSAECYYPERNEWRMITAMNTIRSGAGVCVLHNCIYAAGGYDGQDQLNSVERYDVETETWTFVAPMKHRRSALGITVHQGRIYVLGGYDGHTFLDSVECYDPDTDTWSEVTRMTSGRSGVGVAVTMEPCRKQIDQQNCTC

Row | Structure (SMILES) | Kd [2] [nM] | EC50 [1] [nM]
1 | Cc1ccc([C@@H](CC(=O)O)c2ccn3c(C(F)(F)F)nnc3c2C)cc1CN1C[C@H]2CCN2c2ncccc2S1(=O)=O (single isomer, unassigned) [Example 295, (*R)-3-(3-(((*R)-5,5-Dioxido-7,7a,8,9-tetrahydro-6H-azeto[2,1-d]pyrido[2,3-f][1,2,5]thiadiazepin-6-yl)methyl)-4-methylphenyl)-3-(8-methyl-3-(trifluoromethyl)-[1,2,4]triazolo[4,3-a]pyridin-7-yl)propanoic Acid] | 8.07 | 2090
2 | Cc1ccc([C@@H](CC(=O)O)c2ccn3c(C(F)(F)F)nnc3c2C)cc1CN1CC2(CC2)N(C)c2ncccc2S1(=O)=O (single isomer, unassigned) [Example 185, (*R)-3-(4-Methyl-3-((5′-methyl-1′,1′-dioxido-5′H-spiro[cyclopropane-1,4′-pyrido[2,3-f][1,2,5]thiadiazepin]-2′(3′H)-yl)methyl)phenyl)-3-(8-methyl-3-(trifluoromethyl)-[1,2,4]triazolo[4,3-a]pyridin-7-yl)propanoic Acid] | 12 | 2720
3 | Cc1ccc([C@@H](CC(=O)O)c2ccc3c(nnn3C3CC3)c2C)cc1CN1C[C@@]2(C)CCCN2c2ncccc2S1(=O)=O (single isomer, unassigned) [Example 223, (*R)-3-(1-Cyclopropyl-4-methyl-1H-benzo[d][1,2,3]triazol-5-yl)-3-(4-methyl-3-(((*R)-7a-methyl-5,5-dioxido-7a,8,9,10-tetrahydropyrido[2,3-f]pyrrolo[2,1-d][1,2,5]thiadiazepin-6(7H)-yl)methyl)phenyl)propanoic Acid] | 190 | 5460
4 | Cc1cc2cc(C(CC(=O)O)c3ccc(C)c(CN4C[C@@H]5CCCN5c5ncccc5S4(=O)=O)c3)n(C)c2nn1 (mixture of isomers) [Example 437, 3-(3,7-Dimethyl-7H-pyrrolo[2,3-c]pyridazin-6-yl)-3-(3-(((S)-5,5-dioxido-7a, 8,9,10-tetrahydropyrido[2,3-f]pyrrolo[2,1-d][1,2,5]thiadiazepin-6(7H)-yl)methyl)-4-methylphenyl)propanoic Acid] | 1.84 | 4380
5 | Cc1ccc([C@@H](CC(=O)O)c2ccn3c(C(F)(F)F)nnc3c2C)cc1CN1C[C@H]2CCC(F)(F)CN2c2ncccc2S1(=O)=O (single isomer, unassigned) [Example 456, (*R)-3-(3-(((*R)-10,10-Difluoro-5,5-dioxido-7,7a,8,9,10,11-hexahydro-6H-dipyrido[2,1-d:2′,3′-f][1,2,5]thiadiazepin-6-yl)methyl)-4-methylphenyl)-3-(8-methyl-3-(trifluoromethyl)-[1,2,4]triazolo[4,3-a]pyridin-7-yl)propanoic Acid] | < 1 | 414
6 | Cc1ccc([C@H](CC(=O)O)c2ccn3c(C)nnc3c2)cc1CN1C[C@H]2CCCN2c2ncccc2S1(=O)=O (single isomer, unassigned) [Example 163, (*S)-3-(3-(((R)-5,5-Dioxido-7a,8,9,10-tetrahydropyrido[2,3-f]pyrrolo[2,1-d][1,2,5]thiadiazepin-6(7H)-yl)methyl)-4-methylphenyl)-3-(3-methyl-[1,2,4]triazolo[4,3-a]pyridin-7-yl)propanoic Acid] | < 1 | 2750
7 | Cc1ccc([C@H](c2ccn3c(C(F)(F)F)nnc3c2C)C(C)(C)C(=O)O)nc1CN1CC2(CCOCC2)Oc2nc(OCCN3CCOCC3)ccc2S1(=O)=O (single isomer, unassigned) [Example 326, (*R)-2,2-Dimethyl-3-(8-methyl-3-(trifluoromethyl)-[1,2,4]triazolo[4,3-a]pyridin-7-yl)-3-(5-methyl-6-((7′-(2-morpholinoethoxy)-1′,1′-dioxido-2,3,5,6-tetrahydrospiro[pyran-4,4′-pyrido[2,3-b][1,4,5]oxathiazepin]-2′(3′H)-yl)methyl)pyridin-2-yl)propanoic Acid] | 3240 | 4600
8 | Cc1ccc([C@H](CC(=O)O)c2ccn3c(C(F)(F)F)nnc3c2C)cc1CN1C[C@@H]2CCCCN2c2ncccc2S1(=O)=O (single isomer, unassigned) [Example 290, (*S)-3-(3-(((*S)-5,5-Dioxido-7,7a,8,9,10,11-hexahydro-6H-dipyrido[2,1-d:2′,3′-f][1,2,5]thiadiazepin-6-yl)methyl)-4-methylphenyl)-3-(8-methyl-3-(trifluoromethyl)-[1,2,4]triazolo[4,3-a]pyridin-7-yl)propanoic Acid] | < 1 | 8.8
9 | CCc1c([C@@H](CC(=O)O)c2ccc(C)c(CN3C[C@H]4CCCCN4c4ncc(C)cc4S3(=O)=O)c2)ccn2c(C(F)(F)F)nnc12 (single isomer, unassigned) [Example 516, (*S)-3-(8-Ethyl-3-(trifluoromethyl)-[1,2,4]triazolo[4,3-a]pyridin-7-yl)-3-(4-methyl-3-(((*R)-3-methyl-5,5-dioxido-7,7a,8,9,10,11-hexahydro-6H-dipyrido[2,1-d:2′,3′-f][1,2,5]thiadiazepin-6-yl)methyl)phenyl)propanoic Acid] | < 1 | 11.1
10 | Cc1cnc2c(c1)S(=O)(=O)N(Cc1cc([C@H](CC(=O)O)c3ccn4c(C(F)(F)F)nnc4c3C)ccc1C#N)CC1(CC1)O2 (single isomer, unassigned) [Example 105, (*S)-3-(4-Cyano-3-((8′-methyl-1′,1′-dioxidospiro[cyclopropane-1,4′-pyrido[2,3-b][1,4,5]oxathiazepin]-2′(3′H)-yl)methyl)phenyl)-3-(8-methyl-3-(trifluoromethyl)-[1,2,4]trizolo[4,3-a]pyridine-7-yl)propanoic Acid] | 16 | 14400
11 | Cc1ccc([C@@H](CC(=O)O)c2ccn3c(C(F)F)nnc3c2C)cc1CN1CC2(CCOCC2)Oc2ncc(F)cc2S1(=O)=O (single isomer, unassigned) [Example 534, (*R)-3-(3-(Difluoromethyl)-8-methyl-[1,2,4]triazolo[4,3-a]pyridin-7-yl)-3-(3-((8′-fluoro-1′,1′-dioxido-2,3,5,6-tetrahydrospiro[pyran-4,4′-pyrido[2,3-b][1,4,5]oxathiazepin]-2′(3′H)-yl)methyl)-4-methylphenyl)propanoic Acid] | < 1 | 99.2

Now from value to compound, other results behind:

Row | Kd [2] [nM] | Structure (SMILES) | EC50 [1] [nM]
12 | < 1 | Cc1ccc([C@@H](c2ccn3c(C(F)F)nnc3c2C)C(C)(C)C(=O)O)cc1CN1CC2(CC2)Oc2nc(OCCN3CCCCC3)c(C)cc2S1(=O)=O (single isomer, unassigned) [Example 374, (*S)-3-(3-(Difluoromethyl)-8-methyl-[1,2,4]triazolo[4,3-a]pyridine-7-yl)-2,2-dimethyl-3-(4-methyl-3-((8′-methyl-1′,1′-dioxido-7′-(2-(piperidin-1-yl)ethoxy)spiro[cyclopropane-1,4′-pyrido[2,3-b][1,4,5]oxathiazepin]-2′(3′H)-yl)methyl)phenyl)propanoic Acid] | 4.8
13 | < 1 | Cc1ccc([C@H](c2ccn3c(C(F)(F)F)nnc3c2C)C(C)(C)C(=O)O)cc1CN1CC2(CCOCC2)Oc2nc(N[C@H](C)CN3CCOCC3)c(C)cc2S1(=O)=O (single isomer, unassigned) [Example 362, (*R)-2,2-Dimethyl-3-(4-methyl-3-((8′-methyl-7′-(((R-1-morpholinopropan-2-yl)amino)-1′,1′-dioxido-2,3,5,6-tetrahydrospiro[pyran-4,4′-pyrido[2,3-b][1,4,5]oxathiazepin]-2′(3′H)-yl)methyl)phenyl)-3-(8-methyl-3-(trifluoromethyl)-[1,2,4]triazolo[4,3-a]pyridine-7-yl)propanoic Acid] | 20.5
14 | < 1 | CCn1nnc2c(C)c([C@@H](CC(=O)O)c3ccc(C)c(CN4C[C@H]5CCCN5c5ncccc5S4(=O)=O)n3)ccc21 (single isomer, unassigned) [Example 298, (*R)-3-(6-(((R)-5,5-Dioxido-7a,8,9,10-tetrahydropyrido[2,3-f]pyrrolo[2,1-d][1,2,5]thiadiazepin-6(7H)-yl)methyl)-5-methylpyridin-2-yl)-3-(1-ethyl-4-methyl-1H-benzo[d][1,2,3]triazol-5-yl)propanoic Acid] | 21.5
15 | < 1 | Cc1ccc([C@H](c2ccn3c(C(F)(F)F)nnc3c2C)C(C)(C)C(=O)O)cc1CN1CC2(CCOCC2)Oc2nc(N[C@H](C)CN3CCCCC3)c(C)cc2S1(=O)=O (single isomer, unassigned) [Example 603, (*R)-2,2-Dimethyl-3-(4-methyl-3-((8′-methyl-1′,1′-dioxido-7′-(((*R)-1-(piperidin-1-yl)propan-2-yl)amino)-2,3,5,6-tetrahydrospiro[pyran-4,4′-pyrido[2,3-b][1,4,5]oxathiazepin]-2′(3′H)-yl)methyl)phenyl)-3-(8-methyl-3-(trifluoromethyl)-[1,2,4]triazolo[4,3-a]pyridine-7-yl)propanoic Acid] | 55
16 | < 1 | Cc1ccc([C@H](CC(=O)O)c2ccn3c(C(F)F)nnc3c2C)cc1CN1C[C@@H]2COCCN2c2ncccc2S1(=O)=O (single isomer, unassigned) [Example 458, (*S)-3-(3-(Difluoromethyl)-8-methyl-[1,2,4]triazolo[4,3-a]pyridin-7-yl)-3-(3-(((*R)-5,5-dioxido-7a,8,10,11-tetrahydro-[1,4]oxazino[3,4-d]pyrido[2,3-f][1,2,5]thiadiazepin-6(7H)-yl)methyl)-4-methylphenyl)propanoic Acid] | 276
17 | < 1 | Cc1ccc(C(CC(=O)O)c2ccn3c(C(F)(F)F)nnc3c2C)cc1CN1C[C@H]2CCCCN2c2ncccc2S1(=O)=O (stereo in doubt) [Example 271, 3-(3-(((*R)-5,5-Dioxido-7,7a,8,9,10,11-hexahydro-6H-dipyrido[2,1-d:2′,3′-f][1,2,5]thiadiazepin-6-yl)methyl)-4-methylphenyl)-3-(8-methyl-3-(trifluoromethyl)-[1,2,4]triazolo[4,3-a]pyridin-7-yl)propanoic Acid] | 22.9
